# Reference: patent US20230312587A1, “PTERIDINONE COMPOUNDS AND USES THEREOF” (Vertex Pharmaceutical Incorporated, priority 2018, published 2023)
# Read-outs that look alike come from different tables or passages of the source.
# Test system: β-catenin-TCF-mediated reporter transcription activity in Colo 205 cells
# Experiment: Colo 205 reporter assay (TCF/LEF luciferase)
# Assay type: cell-based
# Conditions: Homo sapiens, COLO 205, 5 h, Colo 205 TCF/LEF luciferase reporter, read-out: TCF reporter Colo205 IC50
# Outline: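 Luciferase signal from a TCF/LEF-driven reporter, stably integrated in Colo 205 colon cancer cells, was measured 5 h after compound addition.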
# [1] = five hours after addition of compound
SMILES,IC50 [1],"IC50 (R-isomer at C2 (corresponding to C2 S-isomer), 5 h)"
"COCC1(C)C(=O)Nc2c(C)nc(NCc3cnn(Cc4ccc(C(F)(F)F)nc4)c3)nc2N1C (stereo not drawn) [Compound 703, 7-(methoxymethyl)-4,7,8-trimethyl-2-(((1-((6-(trifluoromethyl)pyridin-3-yl)methyl)-1H-pyrazol-4-yl)methyl)amino)-7,8-dihydropteridin-6(5H)-one]",300 to 1000 nM,
"Cc1nc(N[C@H]2C[C@H](Oc3cc(F)c(F)c(F)c3)C2)nc2c1N(CC(F)(F)F)C(=O)[C@H](C)N2C [Compound 313, (7S)-4,7,8-trimethyl-5-(2,2,2-trifluoroethyl)-2-((trans-3-(3,4,5-trifluorophenoxy)cyclobutyl)-amino)-7,8-dihydropteridin-6(5H)-one]",≥ 5000 nM,
"COC1(C2C(=O)Nc3c(C)nc(NC4CN(C(=O)c5cc(F)c(F)c(F)c5)C4)nc3N2C)CCC1 (stereo not drawn) [Compound 675, 7-(1-methoxycyclobutyl)-4,8-dimethyl-2-((1-(3,4,5-trifluorobenzoyl)azetidin-3-yl)amino)-7,8-dihydropteridin-6(5H)-one]",300 to 1000 nM,
"COc1cc(F)ccc1CN1CC(Nc2nc(C)c3c(n2)N(C)[C@@H](C(C)C)C(=O)N3)C1 [Compound 603, (S)-2-((1-(4-fluoro-2-methoxybenzyl)azetidin-3-yl)amino)-7-isopropyl-4,8-dimethyl-7,8-dihydropteridin-6(5H)-one]",300 to 1000 nM,
"CC[C@H]1C(=O)Nc2c(C)nc(NC3CN(C(=O)c4cc(F)c(F)c(F)c4)C3)nc2N1C [Compound 739, (S)-7-ethyl-4,8-dimethyl-2-((1-(3,4,5-trifluorobenzoyl)azetidin-3-yl)amino)-7,8-dihydropteridin-6(5H)-one]",300 to 1000 nM,
"Cc1nc(NC2CN(C(=O)C3CCCCO3)C2)nc2c1NC(=O)[C@H](C(C)C)N2C (stereo partly drawn) [Compound 611, (7S)-7-isopropyl-4,8-dimethyl-2-((1-(tetrahydro-2H-pyran-2-carbonyl)azetidin-3-yl)amino)-7,8-dihydropteridin-6(5H)-one]",≥ 5000 nM,
"COC1(C2C(=O)Nc3c(C)nc(N[C@H]4C[C@H](Oc5ccc(C(F)(F)F)nc5)C4)nc3N2C)CCC1 (relative stereo) [Compound 671, 7-(1-methoxycyclobutyl)-4,8-dimethyl-2-((trans-3-((6-(trifluoromethyl)pyridin-3-yl)oxy)cyclobutyl)amino)-7,8-dihydropteridin-6(5H)-one]",< 300 nM,
"Cc1nc(N[C@H]2C[C@@H](NC(=O)NC3CCC(F)(F)CC3)C2)nc2c1NC(=O)[C@H](C(C)C)N2C [Compound 526, 1-(4,4-difluorocyclohexyl)-3-(cis-3-(((S)-7-isopropyl-4,8-dimethyl-6-oxo-5,6,7,8-tetrahydropteridin-2-yl)amino)cyclobutyl)urea]",≥ 5000 nM,
"Cc1nc(NCc2cnn(Cc3cccc(C(F)(F)F)n3)c2)nc2c1NC(=O)[C@H](C)N2C [Compound 184, (7S)-4,7,8-trimethyl-2-(((1-((6-(trifluoromethyl)pyridin-2-yl)methyl)-1H-pyrazol-4-yl)methyl)amino)-7,8-dihydropteridin-6(5H)-one]",< 300 nM,
"Cc1nc(NCc2cnn(Cc3ccc(C(F)(F)F)nc3)c2)nc2c1NC(=O)C1(COC1)N2C [Compound 600, 4′,8′-dimethyl-2′-(((1-((6-(trifluoromethyl)pyridin-3-yl)methyl)-1H-pyrazol-4-yl)methyl)amino)-5′,8′-dihydro-6′H-spiro[oxetane-3,7′-pteridin]-6′-one]",1000 to 5000 nM,
"Cc1nc(N[C@H]2C[C@@H](COc3ccc4c(c3)OCO4)C2)nc2c1NC(=O)[C@H](C(C)C)N2C [Compound 580, (S)-2-((cis-3-((benzo[d][1,3]dioxol-5-yloxy)methyl)cyclobutyl)amino)-7-isopropyl-4,8-dimethyl-7,8-dihydropteridin-6(5H)-one]",300 to 1000 nM,
"Cc1nc(N[C@@H]2COC[C@H]2Oc2ccc(F)cc2)nc2c1NC(=O)[C@H](C)N2C (mixture of isomers) [Compound 297, (7S)-2-((trans-4-(4-fluorophenoxy)tetrahydrofuran-3-yl)amino)-4,7,8-trimethyl-7,8-dihydropteridin-6(5H)-one]",≥ 5000 nM,
CC[C@@H]1C(=O)N(CC)c2cnc(NCc3cnn(Cc4ccc(F)cc4)c3)nc2N1C [Compound I-987],,< 300 nM
"CC[C@H]1C(=O)Nc2c(C)nc(N[C@H]3C[C@@H](Cn4nccc4C(F)(F)F)C3)nc2N1C [Compound 593, (S)-7-ethyl-4,8-dimethyl-2-((cis-3-((5-(trifluoromethyl)-1H-pyrazol-1-yl)methyl)cyclobutyl)amino)-7,8-dihydropteridin-6(5H)-one]",< 300 nM,
"Cc1nc(N[C@H]2C[C@H](Oc3ccc(OC(F)F)nc3)C2)nc2c1NC(=O)[C@H](C)N2C [Compound 361, (7S)-2-((trans-3-((6-(difluoromethoxy)pyridin-3-yl)oxy)cyclobutyl)amino)-4,7,8-trimethyl-7,8-dihydropteridin-6(5H)-one]",< 300 nM,
"Cc1nc(N[C@H]2C[C@H](Oc3ccc(F)cc3F)C2)nc2c1N(C)C(=O)[C@H](C)N2C [Compound 296, (7S)-2-((trans-3-(2,4-difluorophenoxy)cyclobutyl)amino)-4,5,7,8-tetramethyl-7,8-dihydropteridin-6(5H)-one]",< 300 nM,
"Cc1nc(N[C@H]2C[C@@H](COc3ccc(F)cc3)C2)nc2c1NC(=O)[C@H](C)N2C [Compound 261, (7S)-2-((cis-3-((4-fluorophenoxy)methyl)cyclobutyl)amino)-4,7,8-trimethyl-7,8-dihydropteridin-6(5H)-one]",< 300 nM,
"Cc1nc(N[C@H]2C[C@@H](NC(=O)Cc3cc(F)c(F)c(F)c3)C2)nc2c1NC(=O)[C@H](C(C)C)N2C [Compound 514, N-(cis-3-(((S)-7-isopropyl-4,8-dimethyl-6-oxo-5,6,7,8-tetrahydropteridin-2-yl)amino)cyclobutyl)-2-(3,4,5-trifluorophenyl)acetamide]",< 300 nM,
"Cc1nc(N[C@H]2C[C@H](Nc3cccc(C(F)(F)F)n3)C2)nc2c1NC(=O)[C@H](C(C)C)N2C [Compound 531, (S)-7-isopropyl-4,8-dimethyl-2-((trans-3-((6-(trifluoromethyl)pyridin-2-yl)amino)cyclobutyl)amino)-7,8-dihydropteridin-6(5H)-one]",300 to 1000 nM,
"Cc1nc(NCc2ncn(Cc3ccc(OC(F)(F)F)cc3)n2)nc2c1NC(=O)[C@H](C(C)C)N2C [Compound 489, (S)-7-isopropyl-4,8-dimethyl-2-(((1-(4-(trifluoromethoxy)benzyl)-1H-1,2,4-triazol-3-yl)methyl)amino)-7,8-dihydropteridin-6(5H)-one]",≥ 5000 nM,
"Cc1nc(NCc2cnn(Cc3cc(C(F)(F)F)ccn3)c2)nc2c1NC(=O)[C@H](C)N2C [Compound 201, (7S)-4,7,8-trimethyl-2-(((1-((4-(trifluoromethyl)pyridin-2-yl)methyl)-1H-pyrazol-4-yl)methyl)amino)-7,8-dihydropteridin-6(5H)-one]",300 to 1000 nM,
"C[C@H]1C(=O)Nc2cnc(NCc3cnn(CCc4ccc(F)cc4F)c3)nc2N1C [Compound 119, (7S)-2-(((1-(2,4-difluorophenethyl)-1H-pyrazol-4-yl)methyl)amino)-7,8-dimethyl-7,8-dihydropteridin-6(5H)-one]",1000 to 5000 nM,
"COc1ccc(O[C@H]2C[C@H](Nc3nc(C)c4c(n3)N(C)[C@@H](C)C(=O)N4C)C2)cc1OC [Compound 353, (7S)-2-((trans-3-(3,4-dimethoxyphenoxy)cyclobutyl)amino)-4,5,7,8-tetramethyl-7,8-dihydropteridin-6(5H)-one]",≥ 5000 nM,
"Cc1nc(NCc2cnn(CC3CC4CCC3C4)c2)nc2c1NC(=O)[C@H](C)N2C (stereo partly drawn) [Compound 134, (7S)-2-(((1-(bicyclo[2.2.1]heptan-2-ylmethyl)-1H-pyrazol-4-yl)methyl)amino)-4,7,8-trimethyl-7,8-dihydropteridin-6(5H)-one]",< 300 nM,
"C[C@H]1C(=O)Nc2cnc(NCc3cnn(CCc4ccc(F)c(F)c4)c3)nc2N1C [Compound 111, (7S)-2-(((1-(3,4-difluorophenethyl)-1H-pyrazol-4-yl)methyl)amino)-7,8-dimethyl-7,8-dihydropteridin-6(5H)-one]",300 to 1000 nM,
"Cc1nc(N[C@H]2C[C@@H](NC(=O)N(C)C3CCC(F)(F)CC3)C2)nc2c1NC(=O)[C@H](C(C)C)N2C [Compound 538, 1-(4,4-difluorocyclohexyl)-3-(cis-3-(((S)-7-isopropyl-4,8-dimethyl-6-oxo-5,6,7,8-tetrahydropteridin-2-yl)amino)cyclobutyl)-1-methylurea]",1000 to 5000 nM,
"CC[C@H]1C(=O)Nc2c(C)nc(NCc3cnn(Cc4ccc(C(F)(F)F)o4)c3)nc2N1C [Compound 516, (S)-7-ethyl-4,8-dimethyl-2-(((1-((5-(trifluoromethyl)furan-2-yl)methyl)-1H-pyrazol-4-yl)methyl)amino)-7,8-dihydropteridin-6(5H)-one]",< 300 nM,
"Cc1nc(N[C@H]2C[C@H](OCc3cc(F)c(F)c(F)c3)C2)nc2c1N(C)C(=O)[C@H](C)N2C [Compound 255, (7S)-4,5,7,8-tetramethyl-2-((trans-3-((3,4,5-trifluorobenzyl)oxy)cyclobutyl)amino)-7,8-dihydropteridin-6(5H)-one]",< 300 nM,
"Cc1nc(NC2COC(Cn3nccc3C(F)(F)F)C2)nc2c1NC(=O)[C@H](C)N2C (stereo partly drawn) [Compound 306, (7S)-4,7,8-trimethyl-2-((cis-5-((5-(trifluoromethyl)-1H-pyrazol-1-yl)methyl)-tetrahydrofuran-3-yl)amino)-7,8-dihydropteridin-6(5H)-one]",1000 to 5000 nM,
"Cc1nc(N[C@H]2C[C@H](Oc3ccc(F)c(F)c3)C2)nc2c1NC(=O)[C@H](C)N2C [Compound 248, (7S)-2-((trans 3-(3,4-difluorophenoxy)cyclobutyl)amino)-4,7,8-trimethyl-7,8-dihydropteridin-6(5H)-one]",< 300 nM,
